The test system of series [1] is mouse NIH3T3 fibroblasts. Kind of series: Anti-fibrotic effects in mouse NIH3T3 fibroblasts (α-SMA staining). The class given is cell-based. Conditions: mimetic IFNγ 1 μg/ml, 48 hrs. The method, then:
Briefly, 3T3 fibroblasts were seeded in 24 well plates at the density of 6×10^4 cells/well, After 24 hrs, cells were starved in 0.5% FBS containing medium for overnight. Thereafter, cells were incubated in starvation medium with different compounds (PDGF 50 ng/ml, TGFβ 10 ng/ml, mimetic IFNγ 1 μg/ml, 50 ng/ml PDGF+1 μg/ml mimetic IFNγ and 10 ng/ml TGFβ+1 μg/ml mimetic IFNγ). After 48 hrs of incubation, cells were washed, fixed with ethanol:acetone (1:1) and stained for α-SMA (marker of activated fibroblasts).

In series [2] the test system is PDGFß-receptor. Put plainly: Binding of FITC-labeled PPB or BiPPB to cultured or freshly isolated primary cells. Details: species or system rat. To be noted: for binding (fluorescence microscopy): FITC-coupled, 10 μg/ml, 2 h, room temperature, rat hepatic stellate cells and other cell types tested. The method, then: The binding of BiPPB was performed in primary freshly isolated rat hepatic stellate cells. Cells were seeded in the 8-well glass plates (Lab-Tek, Nunc, Naperville, Ill.) at 30,000 cells/well in the culture medium. After overnight incubation at 37° C./5% CO2, cells were washed with PBS and subsequently incubated with FITC-labeled PPB (monocyclic) or BiPPB (bicyclic: 10 μg/ml) at room temperature. To block the binding, anti-PDGF-βR IgG was added to the cells 1 h before FITC coupled PPB or BiPPB. After 2 h, cells were washed 3 to 4 times with cold PBS and fixed with 4% paraformaldehyde. The nuclei were counterstained with DAPI and mounted in citifluor (anti-fade reagent) and visualized under fluorescent microscope.
Similar binding experiments were performed in primary freshly isolated human myofibroblasts, mouse 3T3 fibroblasts and human hepatic stellate cells (LX2). For human Hepatic stellate cells, the sequence of BiPPB was as follows: […]

Series [3] concerns Human Hepatocytes (HepG2). Put plainly: ICAM1 expression in human hepatocytes (HepG2). The class given is cell-based. Conditions: 1 ug/ml, 24 hrs, 18srRNA housekeeping control. The procedure:
Human Hepatocytes (HepG2) were plated in 12 well plates (1×10^5 cells/well). The cells were grown overnight in 5%/37° C./CO2 incubator. […] After 24 hrs of incubation, cells were lysed, RNA was isolated and reverse transcribed. The cDNA was used for the analysis of Inter-Cellular Adhesion Molecule 1 (ICAM1) expression, which is known to be induced in response to IFNγ. 18srRNA was used a housekeeping control.

The subject of series [4] is acute CCL4-induced liver injury mouse model. Kind of series: Blood count analysis (side effects) in acute CCl4-induced liver injury mouse model. To be noted: 50,000 U/mice at day 2 and 3; p<0.0025. The format is in vivo. The procedure:
At day 1, the animals were given a single intra-peritoneal dose (1 ml/kg) of carbon tetrachloride (CCl4) in olive oil or olive oil (controls n=6). After 24 hrs of CCl4 injection, at day 2 and 3, animals were treated either with PBS (n=6), 50,000 U/mice of IFNγ (n=6), 50,000 U/mice of mimetic IFNγ (n=5), 50,000 U/mice of IFNγ-BiPPB (n=6), 50,000 U/mice of Mimetic IFNγ-BiPPB (n=6).

Series [5] has as its system established advanced liver fibrosis mouse model. Put plainly: Established advanced liver fibrosis mouse model (8 weeks CCl4), liver section staining. The format is in vivo. The procedure:
Male balb/c mice (20-22 g) were treated with olive oil or increasing doses of CCl4 (week 1: 0.5 ml/kg; week 2: 0.8 ml/kg and week 3-8: 1 ml/kg prepared in olive oil) twice weekly by intra-peritoneal injections for 8 weeks. In week 7 and 8, mice were treated intravenously with PBS, mimeticIFNγ-PEG or MimeticIFNγ-PEG-BiPPB (5 μg/mice, thrice per week). All mice were sacrificed at week 8; blood and liver samples were collected for subsequent measurements. The liver sections were stained for Collagen I and desmin, CD68, 33D1 and MHC class II.

Series [6] deals with liver fibrosis models induced with CCl4 in mice. Kind of series: 4 days (acute) and 8 weeks (chronic) CCl4 liver fibrosis models in mice. The format is in vivo, mouse. The procedure: In vivo, the targeted conjugate was examined in 4 days (acute) and 8 weeks (chronic) liver fibrosis models induced with CCl4 in mice. Several fibrotic parameters and infiltration of inflammatory cells were assessed in the livers using immunohistochemistry and gene expression analysis.

Setting [7] is: 5 μg/mice i.v. thrice per week, week 7 and 8, vs untreated CCl4-mice.

Bridge positions count the residues as written; N and C are the ends. Ends that are not written are not given here.

For the molecule “AKFEVNNPQVQRQAFNELIRVVHQLLPESSLRKRKRSR (listed as Mus musculus) [Recombinant mimetic IFNγ]”, in series [1], the “anti-fibrotic effects (α-Smooth muscle actin staining)” value was “anti-fibrotic effects”.

As for “C(1)S R N L I D C(1)G G G D G G C(2)S R N L I D C(2) (CSRNLIDCGGGDGGCSRNLIDC; disulfide 1-8, 15-22; also: FITC label) [BiPPB, Bicyclic peptide against the PDGF-beta-receptor; KGSGSGG linker variant for human hepatic stellate cells]”, the results for the “binding (fluorescence microscopy)” value in series [2] and in series [2] (listed as FITC-coupled BiPPB) were “specifically binds” and “significant binding”, respectively. Besides, the “species specificity of binding” value in series [2] (Myo-fibroblast-like cells of rat, mouse and human) is “species non-specific”. Moreover, in series [2] (anti-PDGF-βR IgG added 1 h before), the “binding after blocking with PDGF receptor antibody” value was “almost completely blocked”.

Take “FEVNNPQVQRQAFNELIRVVHQLLPESSLRKRKRSR [mouse truncated IFNγ, signaling moiety of murine IFNγ (mimIFNγ), without targeting domain]”: the ICAM1 expression entry is “neither mouse truncated IFNγ nor Lac-HSA induced ICAM1 expression” in series [3] and “ineffective” in series [3] (listed as mouse (truncated) INFγ).

As to “human IFNγ: human interferon gamma, positive control in human hepatocytes”, the ICAM1 expression result in series [3] was “upregulated ICAM1 expression”.

B1: INFγ: full length mouse Interferon gamma, SEQ ID NO: 54 (protein, listed as Mus musculus)
chain: MNATHCILALQLFLMAVSGCYCHGTVIESLESLNNYFNSSGIDVEEKSLFLDIWRNWQKDGDMKILQSQIISFYLRLFEVLKDNQAISNNISVIESHLITTFFSNSKAKKDAFMSIAKFEVNNPQVQRQAFNELIRVVHQLLPESSLRKRKRSRC
On to B1, for which, in series [4], the “reduction in platelet count (PLT)” value was “reduction in platelet count”. Further, in series [5] (setting [7]), the “collagen I staining (liver sections)” value is “only a small reduction” and the “desmin staining (liver sections)” value was “only a small reduction”. Besides, in series [5] (chronic CCl4 model), the “MHCII expression in livers” value was “increased MHCII expression” and the “infiltration of inflammatory cells (CD68+ macrophages, neutrophils, 33D1+ dendritic cells) in livers” value is “induced infiltration of inflammatory cells”. Also, in series [6] (both acute and chronic liver fibrosis models), the fibrotic parameters result is “only a moderate reduction”. Also, in series [6] (data not shown), the MHCII expression result is listed as “increased MHCII expression” and the “infiltration of inflammatory cells (CD68+ macrophages, neutrophils, 33D1+ dendritic cells) / inflammatory response” value is “induced infiltration of inflammatory cells”.

The record behind these values is patent US10442845B2, “Interferon analogs” (BiOrion Technologies B.V., priority 2009, dated 2019).
